# Reference: patent US20220030867A1 (priority 2018, published 2022)
# Test system: not given
# Test: not given
# Conditions: not given
row,Structure (SMILES),melting point [°C]
1,"CC(Cc1ccccc1)(CC(F)(F)F)C(=O)Nc1cnc2cc(F)ccc2c1 (stereo not shown) [Compound E-52, 2-benzyl-4,4,4-trifluoro-N-(7-fluoro-3-quinolyl)-2-methyl-butanamide]",180 to 182
2,"Cc1c(NC(=O)C(C)(Cc2ccccc2)CC(F)(F)F)cnc2c(Cl)cccc12 (stereo not shown) [Compound E-15, 2-benzyl-N-(8-chloro-4-methyl-3-quinolyl)-4,4,4-trifluoro-2-methyl-butanamide]",73 to 75
3,"CC(Cc1ccccc1)C(=O)Nc1cnc2c(F)cccc2c1 (stereo not shown) [Compound E-31, N-(8-fluoro-3-quinolyl)-2-methyl-3-phenyl-propanamide]",188 to 190
4,"COCN(C(=O)C(C)(Cc1ccccc1)CC(F)(F)F)c1cnc2c(F)cccc2c1 (stereo not shown) [Compound E-33, 2-benzyl-4,4,4-trifluoro-N-(8-fluoro-3-quinolyl)-N-(methoxymethyl)-2-methyl-butanamide]",108 to 110
5,"CC(Cc1ccccc1)(CC(F)(F)F)C(=O)Nc1cnc2cccc(F)c2c1 (stereo not shown) [Compound E-49, 2-benzyl-4,4,4-trifluoro-N-(5-fluoro-3-quinolyl)-2-methyl-butanamide]",140 to 142
6,"C=C(CC)CC(C)(Cc1ccccc1)C(=O)Nc1cnc2c(F)cccc2c1 (stereo not shown) [Compound E-54, 2-benzyl-N-(8-fluoro-3-quinolyl)-2-methyl-4-methylene-hexanamide]",118 to 120
7,"CC1(CC(C)(Cc2ccccc2)C(=O)Nc2cnc3c(F)cccc3c2)CC1 (stereo not shown) [Compound E-70, 2-benzyl-N-(8-fluoro-3-quinolyl)-2-methyl-3-(1-methylcyclopropyl)propanamide]",149 to 151
8,"C=C(C)CC(C)(Cc1cccc(F)c1)C(=O)Nc1cnc2c(F)cccc2c1 (stereo not shown) [Compound E-11, 2-[(3-fluorophenyl)-methyl]-N-(8-fluoro-3-quinolyl)-2,4-dimethyl-pent-4-enamide]",125 to 127
9,"Cc1c(NC(=O)C(C)(Cc2ccccc2)CC(C)C)cnc2c(Cl)cccc12 (stereo not shown) [Compound E-14, 2-benzyl-N-(8-chloro-4-methyl-3-quinolyl)-2,4-dimethyl-pentanamide]",124 to 126
10,"CN(C(=O)C(C)(Cc1ccccc1)CC(F)(F)F)c1cnc2c(F)cccc2c1 (stereo not shown) [Compound E-42, 2-benzyl-4,4,4-trifluoro-N-(8-fluoro-3-quinolyl)-N,2-dimethyl-butanamide]",137 to 139
11,"C=C(C)CC(C)(Cc1cccc(F)c1)C(=O)Nc1cc2cccc(F)c2nc1C (stereo not shown) [Compound E-12, N-(8-fluoro-2-methyl-3-quinolyl)-2-[(3-fluorophenyl)methyl]-2,4-dimethyl-pent-4-enamide]",124 to 126
12,"C=C(C)CC(C)(Cc1ccccc1)C(=O)Nc1cnc2c(F)cccc2c1C (stereo not shown) [Compound E-65, 2-benzyl-N-(8-fluoro-4-methyl-3-quinolyl)-2,4-dimethyl-pent-4-enamide]",105 to 109

# Test system: Fusarium culmorum
# Test: whole plant or invertebrate
# Type: in vivo, Fusarium culmorum on wheat spikelets cv. Monsun
# Conditions: in Triticum aestivum, read-out: control of Fusarium culmorum
row,Structure (SMILES),pest or weed control at 200 ppm [%]
1,"CC(Cc1ccccc1)(CC(F)(F)F)C(=O)Nc1cnc2ccccc2c1 (stereo not shown) [Compound E-81, 2-benzyl-4,4,4-trifluoro-2-methyl-N-(3-quinolyl)butanamide]",≥ 80
2,"CC(C)CC(C#N)(Cc1ccccc1)C(=O)Nc1cnc2c(F)cccc2c1 (stereo not shown) [Compound E-83, 2-benzyl-2-cyano-N-(8-fluoro-3-quinolyl)-4-methyl-pentanamide]",≥ 80
3,"C=C(C)CC(C)(Cc1ccccc1)C(=O)Nc1cc2cccc(F)c2nc1C (stereo not shown) [Compound E-66, 2-benzyl-N-(8-fluoro-2-methyl-3-quinolyl)-2,4-dimethyl-pent-4-enamide]",≥ 80
4,"Cc1c(NC(=O)[C@](C)(Cc2ccccc2)CC(F)(F)F)cnc2c(F)cccc12 [Compound F-13, (2R)-2-benzyl-4,4,4-trifluoro-N-(8-fluoro-4-methyl-3-quinolyl)-2-methyl-butanamide]",≥ 80
5,"CC(Cc1ccccc1)(CC(F)(F)Cl)C(=O)Nc1cnc2c(F)cccc2c1 (stereo not shown) [Compound E-56, 2-benzyl-4-chloro-4,4-difluoro-N-(8-fluoro-3-quinolyl)-2-methyl-butanamide]",≥ 80
6,"Cc1nc2c(F)cccc2cc1NC(=O)C(C)(Cc1ccccc1)OC(C)C (stereo not shown) [Compound E-39, N-(8-fluoro-2-methyl-3-quinolyl)-2-isopropoxy-2-methyl-3-phenyl-propanamide]",≥ 80
7,"CC(C)CC(Cc1ccccc1)C(=O)Nc1cnc2c(F)cccc2c1 (stereo not shown) [Compound E-35, 2-benzyl-N-(8-fluoro-3-quinolyl)-4-methyl-pentanamide]",≥ 80
8,"C=C(C)CC(C)(Cc1ccccc1)C(=O)Nc1cnc2ccccc2c1 (stereo not shown) [Compound E-64, 2-benzyl-2,4-dimethyl-N-(3-quinolyl)pent-4-enamide]",≥ 80
9,"CC(C)OC(C)(Cc1ccccc1)C(=O)Nc1cnc2c(F)cccc2c1 (stereo not shown) [Compound E-40, N-(8-fluoro-3-quinolyl)-2-isopropoxy-2-methyl-3-phenyl-propanamide]",≥ 80
10,"Cc1c(NC(=O)[C@@](C)(Cc2ccccc2)CC(F)(F)F)cnc2c(F)cccc12 [Compound F-14, (2S)-2-benzyl-4,4,4-trifluoro-N-(8-fluoro-4-methyl-3-quinolyl)-2-methyl-butanamide]",≥ 80
11,"CC(C)(Cc1ccccc1)C(=O)Nc1cnc2c(F)cccc2c1 [Compound E-69, N-(8-fluoro-3-quinolyl)-2,2-dimethyl-3-phenyl-propanamide]",≥ 80
12,"Cc1nc2c(F)cccc2cc1NC(=O)[C@@](C)(Cc1ccccc1)CC(C)C [Compound F-8, (2R)-2-benzyl-N-(8-fluoro-2-methyl-3-quinolyl)-2,4-dimethyl-pentanamide]",≥ 80
13,"CCCC(C)(Cc1ccccc1)C(=O)Nc1cnc2c(F)cccc2c1 (stereo not shown) [Compound E-77, 2-benzyl-N-(8-fluoro-3-quinolyl)-2-methyl-pentanamide]",≥ 80
14,"C/C=C(\C)CC(C)(Cc1ccccc1)C(=O)Nc1cnc2c(F)cccc2c1 (stereo not shown) [Compound E-32, (E)-2-benzyl-N-(8-fluoro-3-quinolyl)-2,4-dimethyl-hex-4-enamide]",≥ 80
15,"Cc1nc2c(F)cccc2cc1NC(=O)C(C)(Cc1ccccc1)CC(F)(F)F (stereo not shown) [Compound E-47, 2-benzyl-4,4,4-trifluoro-N-(8-fluoro-2-methyl-3-quinolyl)-2-methyl-butanamide]",≥ 80
16,"CC(C=C(F)F)(Cc1ccccc1)C(=O)Nc1cnc2c(F)cccc2c1 (stereo not shown) [Compound E-57, 2-benzyl-4,4-difluoro-N-(8-fluoro-3-quinolyl)-2-methyl-but-3-enamide]",≥ 80
17,"CC(Cc1ccccc1)(CC(F)F)C(=O)Nc1cnc2c(F)cccc2c1 (stereo not shown) [Compound E-55, 2-benzyl-4,4-difluoro-N-(8-fluoro-3-quinolyl)-2-methyl-butanamide]",≥ 80
18,"COC(C)(Cc1ccccc1)C(=O)Nc1cc2cccc(F)c2nc1C (stereo not shown) [Compound E-41, N-(8-fluoro-2-methyl-3-quinolyl)-2-methoxy-2-methyl-3-phenyl-propanamide]",≥ 80
19,"Cc1nc2c(F)cccc2cc1NC(=O)[C@](C)(Cc1ccccc1)CC(C)C [Compound F-7, (2S)-2-benzyl-N-(8-fluoro-2-methyl-3-quinolyl)-2,4-dimethyl-pentanamide]",≥ 80
